Data published in US12473324B2, “Triazine-based amphiphilic compound and use thereof” (INDUSTRY-UNIVERSITY COOPERATION FOUNDATION HANYANG …, priority 2019, dated 2025).

Assays:
BOR1-GFP fusion protein = assay: AtBOR1 thermal stability, fluorescence size exclusion chromatography (FSEC); conditions: 1% detergent, heated at 47° C. for 10 minutes
Description: Fluorescence size exclusion chromatography (FSEC): BOR1 of Arabidopsis thaliana was expressed in Saccharomyces cerevisiae FGY217 cells as a fusion protein having a C-terminal GFP tag. The cells were grown in a URA medium supplemented with 0.1% glucose. Protein expression was induced by adding 2% galactose, and then the cells were cultured at 20° C. for 18 hours as previously described. The cells were collected and used to prepare a membrane. The membrane including the BOR1-GFP fusion protein was diluted as follows. […] Samples were cultured while shaking at 4° C. for 1 hour, and then insoluble materials were removed by centrifugation at 14,000 g and 4° C. for 1 hour. A supernatant including the solubilized protein sample was heated at 47° C. for 10 minutes. After additional centrifugation to remove large aggregates, a 200 μl aliquot of the sample was injected into a Superose 6 10/300 column equilibrated with 20 mm Tris (pH 7.5), 150 mm NaCl and 0.03% DDM. The GFP fluorescence of each fraction was read using an excitation wavelength of 470 nm and an emission wavelength of 512 nm.

[1] = Hydrodynamic radius (Rh) of micelles by dynamic light scattering (DLS); assay type: physicochemical; conditions: 1.0 wt % detergent
Description: A method of measuring the radius of micelle is not particularly limited, but a method widely known in the art may be used, and for example, the radius of micelle may be measured using a dynamic light scattering (DLS) experiment.
(§1) Specifically, the critical micelle concentrations (CMCs) were measured using a fluorescent dye, diphenylhexatriene (DPH), and the hydrodynamic radii (Rh) of micelles formed by each preparation (1.0 wt %) were determined by a dynamic light scattering (DLS) experiment. The measured results are shown in Table 1 compared to DDM which is an existing amphiphilic molecule (detergent).

[2] = Solubility of detergent (Table 1); assay type: physicochemical
[3] = test system: leucine transporter (LeuT); assay: LeuT structural stability: [3H]-Leu binding by scintillation proximity assay (SPA); assay type: biochemical, Aquifex aeolicus; conditions: CMC+0.04 wt % or CMC+0.2 wt %, room temperature, 13-day incubation, [3H]-Leu SPA
Description: Experiments were performed to measure the structural stability of the LeuT protein by TSMs, TTGs and TEMs. Each amphiphilic compound was used at a concentration of (a) CMC+0.04 wt % or (b) CMC+0.2 wt %, and the substrate binding properties of LeuT were measured using [^3H]-Leu via scintillation proximity assay (SPA). The measurement was performed at regular intervals over the course of a 13-day and 12-day incubation at room temperature, respectively.
Specifically, a wild-type leucine transporter (LeuT) derived from the thermophilic bacterium Aquifex aeolicus was purified by a previously described method (Nature 1998, 392, 353-358 by G. Deckert et al.). LeuT was expressed in E. coli C41 (DE3) transformed with pET16b encoding the C-terminal 8×His-tagged transporter (expression plasmids were provided from Dr E. Gouaux, Vollum Institute, Portland, Oregon, USA). In summary, after a bacterial membrane was isolated and solubilized in 1 wt % DDM, the protein was bound to Ni^2+-NTA resin (Life Technologies, Denmark), and eluted in 20 mM Tris-HCl (pH 8.0), 1 mM NaCl, 199 mM KCl, 0.05% (w/v) DDM and 300 mM imidazole. Then, the purified LeuT (0.5 mg/ml) was diluted with buffers supplemented with TSMs, TTGs, TEMs or DDM at a final concentration of CMC+0.04% (w/v) or CMC+0.2% (w/v) except for DDM and imidazole in the equivalent buffer described above. Protein samples were incubated at room temperature for 13 days, centrifuged at a specified time, and protein properties were confirmed by measuring [^3H]-Leucine binding ability using SPA. SPA was performed with 5 μL of each protein sample in a buffer containing 450 mM NaCl and each of TSMs and TEMs (or DDM). The SPA reaction was performed in the presence of 20 nM [^3H]-Leucine and 1.25 mg/ml copper chelate (His-Tag) YSi beads (PerkinElmer, Denmark). Overall [^3H]-Leucine coupling to each sample was measured using a MicroBeta liquid scintillation counter (Perkin Elmer).

[4] = biological target: T1, Salmonella typhimurium melibiose permease (MelBSt) (Salmonella typhimurium, UniProt P30878); assay: MelB extraction and thermal solubilization stability (SDS-PAGE, Western blotting); assay type: biochemical; conditions: 1.5 wt % detergent, 90 minutes
T1 construct: made in house; host or cells: E. coli DW2 cells
T1 sequence (P30878 whole entry): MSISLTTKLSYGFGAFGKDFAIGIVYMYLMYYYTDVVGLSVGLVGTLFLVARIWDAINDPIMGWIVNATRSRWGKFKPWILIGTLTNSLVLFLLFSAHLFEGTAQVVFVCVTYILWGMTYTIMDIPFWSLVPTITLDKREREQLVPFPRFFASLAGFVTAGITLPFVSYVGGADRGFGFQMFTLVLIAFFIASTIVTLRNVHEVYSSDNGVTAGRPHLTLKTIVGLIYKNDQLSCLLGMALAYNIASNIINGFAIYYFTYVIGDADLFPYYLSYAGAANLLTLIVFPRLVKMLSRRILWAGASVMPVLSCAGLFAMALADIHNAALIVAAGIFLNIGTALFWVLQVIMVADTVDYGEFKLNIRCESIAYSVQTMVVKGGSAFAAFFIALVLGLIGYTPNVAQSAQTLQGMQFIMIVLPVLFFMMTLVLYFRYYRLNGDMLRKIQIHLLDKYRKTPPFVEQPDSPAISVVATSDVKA
Description: Experiments were performed to measure the structural stability of Salmonella typhimurium melibiose permease (MelBSt) protein by TSMs, TTGs and TEMs. After the MelB protein was extracted from the membrane using TSMs, TTGs, TEMs or DDM, the amount and structure of the extracted protein were analyzed by SDS-PAGE and Western blotting. The concentration of the amphiphilic compound used was 1.5 wt %, the protein was extracted at 0° C. for 90 minutes and then the extracted protein was incubated at three high temperatures (45, 55, and 65° C.) for an additional 90 minutes. By measuring the amount of protein remaining in a dissolved state in an aqueous solution of the extracted protein and the heat-treated protein, we tried to evaluate the performance of both the protein extraction efficiency and stabilization ability of the compound at the same time. […]
Specifically, Salmonella typhimurium melibiose permease (MelBSt) having a 10-His tag at the C-terminus was expressed in E. coli DW2 cells (βmelB and βlacZY) using a plasmid pK95βAHB/WT MelBSt/CH10. […] MelBSt was measured by an ImageQuant LAS 4000 Biomolecular Imager (GE Health Care Lifer Science) using a SuperSignal West Pico chemiluminescent substrate.

[5] = Critical micelle concentration (CMC) by fluorescent dye diphenylhexatriene (DPH); assay type: physicochemical; conditions: DPH fluorescence
Description: A method of measuring the CMC is not particularly limited, but a method widely known in the art may be used, and for example, the CMC may be measured by a fluorescent staining method using diphenylhexatriene (DPH).
as §1

μ-opioid receptor (MOR) [6] = biological target: T2, μ-opioid receptor (MOR) (Mus musculus, UniProt P42866); conditions: LMNG not among the compounds of the described test; cited from earlier work
T2 sequence (P42866 whole entry): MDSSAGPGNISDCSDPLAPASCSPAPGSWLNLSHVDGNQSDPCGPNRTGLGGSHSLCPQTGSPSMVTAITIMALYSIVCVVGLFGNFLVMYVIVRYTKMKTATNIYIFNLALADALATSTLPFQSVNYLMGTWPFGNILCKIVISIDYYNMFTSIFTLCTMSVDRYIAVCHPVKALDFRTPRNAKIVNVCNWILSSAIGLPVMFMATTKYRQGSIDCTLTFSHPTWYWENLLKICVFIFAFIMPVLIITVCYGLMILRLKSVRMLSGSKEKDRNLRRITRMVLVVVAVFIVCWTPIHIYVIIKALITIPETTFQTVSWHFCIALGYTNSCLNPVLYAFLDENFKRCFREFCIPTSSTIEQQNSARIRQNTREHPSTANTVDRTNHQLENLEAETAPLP

AtBOR1 = AtBOR1 (Arabidopsis thaliana, UniProt Q8VYR7); assay: AtBOR1 thermal denaturation, CPM assay; assay type: biochemical; conditions: CMC+0.04 wt %, 40° C., 120 minutes
AtBOR1, sequence (Q8VYR7 whole entry): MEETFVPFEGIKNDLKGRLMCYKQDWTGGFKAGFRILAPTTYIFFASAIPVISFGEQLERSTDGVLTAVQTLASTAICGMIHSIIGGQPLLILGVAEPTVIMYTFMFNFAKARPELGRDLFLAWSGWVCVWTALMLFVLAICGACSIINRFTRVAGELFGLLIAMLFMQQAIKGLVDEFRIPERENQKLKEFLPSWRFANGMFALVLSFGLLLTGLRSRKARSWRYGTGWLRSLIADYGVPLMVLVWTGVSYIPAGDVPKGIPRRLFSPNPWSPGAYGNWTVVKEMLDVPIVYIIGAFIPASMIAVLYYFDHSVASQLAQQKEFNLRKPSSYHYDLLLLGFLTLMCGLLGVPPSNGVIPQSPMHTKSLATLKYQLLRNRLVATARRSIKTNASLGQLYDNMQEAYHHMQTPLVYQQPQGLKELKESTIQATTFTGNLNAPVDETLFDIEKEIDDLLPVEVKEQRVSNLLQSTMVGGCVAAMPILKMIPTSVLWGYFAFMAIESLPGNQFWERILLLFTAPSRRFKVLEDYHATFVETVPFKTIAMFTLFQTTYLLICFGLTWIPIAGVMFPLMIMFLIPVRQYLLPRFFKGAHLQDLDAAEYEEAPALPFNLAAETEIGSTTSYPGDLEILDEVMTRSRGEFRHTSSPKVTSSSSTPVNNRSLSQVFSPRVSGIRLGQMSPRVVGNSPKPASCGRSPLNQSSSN
Description: CPM assay: AtBOR1 was concentrated to 10 mg/ml in a buffer (20 mM Tris-HCl (pH 7.5), 150 mM NaCl, 0.03% DDM) with a 100 kDa MWCO centrifugal filter, stored at −80° C. and thawed immediately prior to thermal stability analysis. […] A 7-diethylamino-3-(4′-maleimidylphenyl)-4-methylcoumarin (CPM) dye (Invitrogen) was dissolved in DMSO at 4 mg/ml, and was diluted 1:100 with a buffer (150 mM NaCl supplemented with 20 mM Tris-HCl (pH 7.5) and 0.03% DDM). After 3 μL of the CPM dye was added to each well in the dark, the plate was covered with a transparent lid and the cells were cultured at 40° C. for 120 minutes. Fluorescence emission was monitored every 5 minutes using SpectraMax M2 (Molecular Devices) with a […] of 387 nm and an emission wavelength of 463 nm. Fluorescence readings were normalized under the most unstable conditions to calculate the percentage of proteins that were relatively unfolded. Data was analyzed as a single exponential decay curve using GraphPad Prism 6.

μ-opioid receptor (MOR) [7] = biological target: T2, μ-opioid receptor (MOR); assay: MOR thermal stability test (CPM dye, melting point Tm); assay type: biochemical; conditions: 0.5 wt % compound, CPM fluorescence, 20° C. to 65° C.
Description: An N-[4-(7-diethylamino-4-methyl-3-coumarinyl)phenyl]maleimide (CPM) dye dissolved in DMSO (3 mg/ml) was diluted 40× in a buffer including 20 mM HEPES pH 7.5 and 150 mM NaCl. […] After 1 hour at room temperature, a compound was prepared at a final concentration of 0.5 wt % by diluting the receptor solution 2× in 20 mM HEPES pH 7.5, 150 mM NaCl. After […] of the diluted CPM dye was added thereto, the receptor stability of different compounds was measured by recording the fluorescence spectra (excitation 387 nm) every 5° C. from 20° C. to 65° C. while culturing at each temperature for 2 minutes. The melting point (Tm) was calculated by plotting the read value at 470 nm and fitting a non-linear regression curve using GraphPad Prism.

CCCCCCCCCCCCO[C@@H]1O[C@H](CO)[C@@H](O[C@H]2O[C@H](CO)[C@@H](O)[C@H](O)[C@H]2O)[C@H](O)[C@H]1O [DDM, n-dodecyl-β-D-maltopyranoside, reference compound]
AtBOR1 thermal stability by FSEC (protein peak vs aggregation peak) (BOR1-GFP fusion protein): significant reduction in the original homogeneous protein peak | Rh (nm) [1]: 3.4 ± 0.03 nm | solubility [2]: ~10% | LeuT substrate binding properties over incubation [3]: high initial activity, but the substrate binding ability sharply decreased with the passage of time | MelB protein extraction efficiency at 0° C. [4]: high MelB protein extraction efficiency | CMC [5]: ~0.17 mM

CCCCCCCCCCC(CCCCCCCCCC)(CO[C@@H]1O[C@H](CO)[C@@H](O[C@H]2O[C@H](CO)[C@@H](O)[C@H](O)[C@H]2O)[C@H](O)[C@H]1O)CO[C@@H]1O[C@H](CO)[C@@H](O[C@H]2O[C@H](CO)[C@@H](O)[C@H](O)[C@H]2O)[C@H](O)[C@H]1O [LMNG]
MOR melting point (Tm) of LMNG, comparison value (μ-opioid receptor (MOR) [6]): 38.3 °C

CCCCCCCCCCOc1nc(OCCCCCCCCCC)nc(N(CCO[C@@H]2O[C@H](CO)[C@@H](O[C@H]3O[C@H](CO)[C@@H](O)[C@H](O)[C@H]3O)[C@H](O)[C@H]2O)CCO[C@@H]2O[C@H](CO)[C@@H](O[C@H]3O[C@H](CO)[C@@H](O)[C@H](O)[C@H]3O)[C@H](O)[C@H]2O)n1 [TEM-E10]
AtBOR1 thermal stability by FSEC (protein peak vs aggregation peak) (BOR1-GFP fusion protein): highly effective in maintaining the initial state of the protein | ability to preserve AtBOR1 in the folded state (CPM) (AtBOR1): best performance | Rh (nm) [1]: 4.5 ± 0.1 nm | solubility [2]: ~5% | LeuT substrate binding properties over incubation [3]: best substrate binding activity | MOR melting point (Tm) (μ-opioid receptor (MOR) [7]): 48.0 °C | CMC [5]: ~0.005 mM
